These results are taken from patent publication US20230399608A1, “PROCESS FOR ESTABLISHING A HUMAN TESTICULAR TISSUE CULTURE SYSTEM” (PATERNA BIOSCIENCES INC., priority 2021, published 2023).

The test system of assay [1] is proliferating germ cells in cultured testicular tissue. The assay can be described thus: Inhibitor screen in cultured testicular tissue: EdU+ cells per unit area relative to best prior condition. Type of assay: cell-based, human. The settings on record: for EdU+/area (um2) to condition 2: ratio of EdU+ cells per unit area in test condition to condition 2, inhibitor at concentration listed in Table 12. An excerpt:
In this study, the HIF-1a, apoptosis, inflammation, ROS, and angiogenesis pathways were primarily targeted to help maintain testicular somatic cell function and promote germ cell proliferation. The level of proliferation was quantified by calculating the number of Edu+ cells (EdU stains the cells that are in the process of replication) per unit area (in μm^2) in each condition and using the ratio of this parameter in the test condition to a previously identified best condition to quantify the effect of the tested condition.

Assay [2] concerns testicular tissue comprising tubules and germ cells. The assay can be described thus: Human testicular tissue culture: morphology and germ cell proliferation (EdU/DDX4). It is filed as cell-based.
Excerpt: Tissue preparation: Whole testes are removed from cadaveric organ donors by DonorConnect staff, which are picked up by Utah team and transported to research lab on ice. Testicular tissues are cut by 3-5 mm by dimeter in size using surgical scissors and tweezers.
Culture media preparation: the base media is αMEM+10% KSR. We first tested various small molecular inhibitors/ligands with different concentrations in the base media to culture testicular tissues.
Tissue culture: Place three pieces of testicular tissue into one well of a 6-well plate with 2 ml of media in each well. The tissue should be fully immersed in media. Place the plate at 34° C. in 5% CO2 in an incubator with culture media changed every other day.
Morphology examination: Measure the sizes of the cultured testicular tissues at different time points, including Day 1, Day 7, Day 14, and Day 21. And then fix the sample for H&E staining.
Germ cell proliferation examination: Add Edu (2 ul into each well) at different time points at Day 0, Day 6, Day 13, Day 20. Harvest the tissue 24 hours later for the germ cell proliferation test. Samples are washed three times by PBS and digested to isolated tubules by collagenase type IV at 37° C. Then wash 3 times by PBS to terminate the digestion and perform whole-mount staining of the tubules with Edu and DDX4/UTF1/SYCP3.
For assay [3], the system named is testicular germ cell proliferation. The experiment in a line: Screen of SSC / differentiating spermatogonia receptor ligands in the iterative culture process. It is filed as cell-based, human. The settings on record: ligand at the concentration listed in Table 5; effective to date at improving germ cell proliferation. An excerpt: A process for identification and selection of receptor ligands capable of improving testicular germ cell proliferation was developed. The process uses expression data obtained by mining scRNA-seq data obtained from testicular tissue (FIG. 27). The process systematically prioritizes candidates for spermatogonia ligands through a series of bioinformatics analyses and filtering. The process comprises identifying and selecting potential ligands based on their receptor expression in State 1 SSCs (active stem cells) and State 2/3 differentiating spermatogonia (differentiated germ cells with strong proliferation ability), or any combination thereof.
More specifically, the approach was based on the single-cell RNA sequencing transcriptome profile of the adult human testis atlas (Guo, J., Grow, E. J., Mlcochova, H., Maher, G. J., Lindskog, C., Nie, X., Guo, Y., Takei, Y., Yun, J., Cai, L., et al. (2018). The adult human testis transcriptional cell atlas. Cell Research 28, 1141. 10.1038/s41422-018-0099-2; the disclosure of all of which is incorporated herein in its entirety), which provides a comprehensive characterization of cell types in the human adult testis. Pseudo-bulk RNA-seq analysis was used, which involves aggregating individual cells into groups to enhance the receptor gene expression signal on SSCs and differentiating spermatogonia. Each individual cell is assigned to its corresponding cell type cluster based and summing the expression values of all cells within each cluster to create pseudo-bulk samples.
The CellTalkDB database was used to identify receptors expressed in SSCs/differentiating spermatogonia. Specifically, the receptors whose expression in SSCs/differentiating spermatogonia ranks within the top 150 were selected, as expression levels below this point are generally low in these cell populations. […] This filtering step helps to focus on receptors that are more specific to the target cell populations. Using the CellTalkDB database, the corresponding ligands for the selected receptors were then identified. The ligand candidates were prioritized based on their expression levels in the testes, and their known functionality.
The identified ligands were then used in the iterative process of the instant disclosure for identifying culture conditions that support testicular germ cell proliferation in vitro to refine the culture conditions.

Regarding `CC(C)=CCC[C@](C)(O[C@@H]1O[C@H](CO)[C@@H](O)[C@H](O)[C@H]1O)[C@H]1CC[C@]2(C)[C@@H]1[C@H](O)C[C@@H]1[C@@]3(C)CC[C@H](O)C(C)(C)[C@@H]3[C@@H](O[C@@H]3O[C@H](CO)[C@@H](O)[C@H](O)[C@H]3O[C@@H]3OC[C@@H](O)[C@H](O)[C@H]3O)C[C@]12C` [Notoginsenoside R1], in assay [1], the “EdU+/area (um2) to condition 2” value was found to be 1.5.

Consider `C[C@@H]1[C@H](O)[C@@H](C)/C=C/C=C/CC/C=C/C=C/C=C/C=C/C(O[C@H]2O[C@H](C)[C@@H](O)[C@H](N)[C@@H]2O)CC2O[C@](O)(CC(O)C(O)CCC(O)CC(O)CC(O)CC(=O)O[C@H]1C)CC(O)C2C(=O)O` (stereo partly drawn) [Nystatin], for which the “improving germ cell proliferation” value in assay [1] (added to first culture condition, FIG. 31 / Table 12) is recorded as “effective at improving germ cell proliferation”. Further, in assay [1], the “EdU+/area (um2) to condition 2” value is on record as 2.1.

Turning to `c1cc(CN2CCCNCCNCCCNCC2)ccc1CN1CCCNCCNCCCNCC1` [Plerixafor], the “EdU+/area (um2) to condition 2” value in assay [1] is recorded as 1.4.

In the case of `O=C(Nc1ccc([N+](=O)[O-])cc1O)Nc1ccccc1Br` [SB225002], in assay [1], the “EdU+/area (um2) to condition 2” value is recorded as 1.7.

`C[C@]12CC[C@H]3[C@@H](CC[C@]4(O)C[C@@H](O)CC[C@]34C=O)[C@@]1(O)CC[C@@H]2C1=CC(=O)OC1` [Strophanthidin]: the “EdU+/area (um2) to condition 2” value in assay [1] came out at 2.2.

As to `CS[C@H]1SC[C@H]2C(=O)N(C)[C@@H](C(C)C)C(=O)OC[C@@H](NC(=O)c3cnc4ccccc4n3)C(=O)N[C@@H](C)C(=O)N(C)[C@@H]1C(=O)N(C)[C@@H](C(C)C)C(=O)OC[C@@H](NC(=O)c1cnc3ccccc3n1)C(=O)N[C@@H](C)C(=O)N2C` [echinomycin, Echinomycin], the germ cell survival result in assay [2] (even two weeks after start of culture) is “helps germ cell survival”. Moreover, the “maintenance of testicular tissue structure” value in assay [2] (inhibitor added to base culture media) is listed as “helps maintain testicular tissue structure”.

B1: rh ADAM10: ligand of CADM1/TSPAN14/TSPAN15/TSPAN12 (protein, UniProt O14672 214-748, looked up)
Disintegrin and …: TTSAEKNTCQLYIQTDHLFFKYYGTREAVIAQISSHVKAIDTIYQTTDFSGIRNISFMVKRIRINTTADEKDPTNPFRFPNIGVEKFLELNSEQNHDDYCLAYVFTDRDFDDGVLGLAWVGAPSGSSGGICEKSKLYSDGKKKSLNTGIITVQNYGSHVPPKVSHITFAHEVGHNFGSPHDSGTECTPGESKNLGQKENGNYIMYARATSGDKLNNNKFSLCSIRNISQVLEKKRNNCFVESGQPICGNGMVEQGEECDCGYSDQCKDECCFDANQPEGRKCKLKPGKQCSPSQGPCCTAQCAFKSKSEKCRDDSDCAREGICNGFTALCPASDPKPNFTDCNRHTQVCINGQCAGSICEKYGLEECTCASSDGKDDKELCHVCCMKKMDPSTCASTGSVQWSRHFSGRTITLQPGSPCNDFRGYCDVFMRCRLVDADGPLARLKKAIFSPELYENIAEWIVAHWWAVLLMGIALIMLMAGFIKICSVHTPSSNPKLPPPKPLPGTLKRRRPPQPIQQPQRQRPRESYQMGHMRR
As for B1, the Effective result in assay [3] was “No”.
